Laboratory results as given in patent US11540542B2, “Taste modulating aldehydes” (TAKASAGO INTERNATIONAL CORPORATION, priority 2016, dated 2023).

System: trained experts
Assay: Monkfruit juice beverage taste comparison, trained experts
Details: 0.000001% cut of 1% 2,6-nonadienal in ethyl acetate, used at 0.10% in Monkfruit beverage (juice concentrate 0.15%); three trained experts
Description: A taste comparison was conducted by combining and mixing 0.000001% cut of 1% 2,6-nonadienal (I % in ethanol) in ethyl acetate and used that dilution at 0.10% in a Monkfruit beverage in water, wherein Monkfruit juice concentrate was present at 0.15%. Three trained experts evaluated the combination against a control of Monkfruit juice without the taste modulation compound.

SMILES: CCC=CCCC=CC=O [2,6-nonadienal]
- modulation of off-notes of Monkfruit juice versus control: demonstrated a modulation of the off-notes
